# Test results as given in patent publication US11311514B2, “Pharmaceutical composition for preventing or treating pruritus, containing pyrazole derivative as active ingredient, and screening method for detecting same” (Seoul National University R&DB Foundation, priority 2017, dated 2022).
# How the values were obtained:
# [1] = biological target: T1, MRGPR X1 (Homo sapiens, UniProt Q96LB2); assay: MRGPR X1 screening assay (calcium dye fluorescence, chloroquine-stimulated); type: cell-based; conditions: Mrgpr X1 stable HEK 293T FRT cells; final 12 μM compound, 500 μM chloroquine, 0.2% DMSO
# T1 construct: expressed in transfected cells
# Procedure: Human MRGPRX1 gene was sub-cloned in pcDNA5 FRT vector, which was transfected into HEK 293T FRT cells. The cells were cultured in a 37° C., 5% CO2 incubator for 48 hours.
# To confirm the amount with which a single colony is well formed, the transfected cells were serially diluted and then transferred and distributed on 100 mm dish evenly. The medium was replaced with a fresh medium containing 50/g/ ? of hygromycin every 3-4 days. The cells were cultured until colonies were formed.
# Once colonies were formed, only a single colony was transferred to a 24 well plate, followed by culture. Then, well grown cells were transferred to a 6 well plate, followed by culture. Antibiotic selection was performed. […]
# First, MRGPR X1 stable cells were counted to make 8000 cells/well, followed by seeding in a Poly-D-Lysine coated plate 384 well black/clear plate. […]
# Upon completion of the incubation, dye was discarded and Na-HEPES buffer was added thereto (25 ? /well) for washing, and then buffer was added thereto (25 ? /well) again. 25 ? of the primary candidate material was added to each well of the assay plate containing 25 ? of buffer, followed by reading the plate (final 12 μM compound, 500 μM chloroquine, 0.2% DMSO). […]
# The experimental results were analyzed using a microplate reader (Flexstaion Π^384, Molecular Devices). […]
# [2] = biological target: T2, human histamine 1 receptor (hH1R) (Homo sapiens, UniProt P35367); assay: Human histamine 1 receptor antagonist assay (calcium dye fluorescence, histamine-stimulated); type: cell-based; conditions: HEK 293T cells transiently expressing hH1R; final 12 μM compound, 1 μM histamine, 0.2% DMSO; control 5 μM diphenhydramine; read-out: reduction of fluorescence, taking the inhibition by histamine plus diphenhydramine as 100%
# T2 construct: expressed in transfected cells; host or cells: HEK 293T cells, transient transfection
# Procedure: HEK 293T cells were transiently transfected with 2 μg of human histamine 1 receptor, followed by seeding at the density of 4000 cells/well. The cells were cultured in a 37° C., 5% CO2 incubator for 48 hours.
# The subsequent procedure was performed using Biomex FX. After eliminating the medium, flo-3 AM dye dissolved in Na-HEPES buffer (5 mM KCl, 2 mM MgCl2, 140 mM NaCl, 10 mM NaOH-HEPES, pH7.2) at the concentration of 2.5 μM was added to the plate (25 ? /well) of the vehicle and experimental groups, and flo-3 AM dye dissolved in Na-HEPES buffer containing 5 uM diphenhydramine dissolved therein at the concentration of 2.5 μM was added to the plate (25 ? /well) of the control group, followed by culture in a 37° C., 5% CO2 incubator for 30 minutes.
# During the culture, a compound plate was prepared. […]
# Upon completion of the incubation, dye was discarded and Na-HEPES buffer was added thereto (25 ? /well) for washing, and then buffer was added thereto (25 ? /well) again (excluding control group wells). […] Finally, 25 ? of the compound was added to each well of the assay plate containing 25 ? of buffer, followed by reading the plate (final 12 μM compound, 1 μM histamine, 0.2% DMSO).
# The experimental results were analyzed using a microplate reader (Flexstaion Π^384, Molecular Devices). Fluorescence assay was performed (Ex 488 nm, Em 535 nm) at the intervals of 3.2 seconds for 80 seconds. […]
# [3] = Solubility in blood (selection of final compound); type: physicochemical; conditions: result in words; no method given
# [4] = system: histamine mouse model; assay: Pruritus evaluation in histamine mouse model; type: in vivo, C57BL6 mice; conditions: 30 mg/kg intraperitoneal, 30 min before histamine 500 μg s.c. dorsal; control group 118.38
# Procedure: (§1) Seven week-old C57BL6 mice were placed in a new cage and adapted for 30 minutes before starting the experiment. As for the control group, 3% DMSO was dissolved in physiological saline (0.9% saline), which was intraperitoneally injected (50 ? /mouse). The animal model mice were intraperitoneally injected with the pharmaceutical composition of Example 1 (30 mg/kg) dissolved in physiological saline (0.9% saline) containing 3% DMSO (50 ? /mouse). The mice were also ? placed in the same cage above for 30 minutes.
# (§2) Then, control and animal model mice were subcutaneously injected with 500 μg/50 ? of histamine on the dorsal side, and their behaviors were recorded with a digital video camera for 30 minutes. The number of scratches was recorded while playing back the recorded video file on a computer. A continuous action of scratching the skin from when the mouse lifted its hind foot off the floor and to when the mouse put it back on the floor was considered 1 scratch, and the number of scratches counted for 30 minutes was used as index for evaluating pruritus.
# [5] = system: chloroquine mouse model; assay: Pruritus evaluation in chloroquine mouse model; type: in vivo, C57BL6 mice; conditions: 30 mg/kg intraperitoneal, 30 min before chloroquine 200 μg s.c. dorsal; control group 425.00
# Procedure: as §1
# as §2, with “200” for “500”, “chloroquine” for “histamine”
# [6] = system: dry skin mouse model; assay: Pruritus evaluation in dry skin mouse model; type: in vivo, C57BL6 mice; conditions: 30 mg/kg intraperitoneal on Day 5 of acetone/ether/water treatment; recorded 30 min later; control group 130.00
# Procedure: First, a dry skin mouse model was constructed. A dry skin mouse model was prepared according to the instruction described Jpn J Pharmacol. 2002 March; 88(3):285-92. ENTOBAR® was mixed with physiological saline (0.9% saline) at the ratio of 1:1, which was intraperitoneally injected in 7-week-old C57BL6 mice (20 ? /mouse) to anesthetize the mice. Then, the hair of the right nape was shaved using a clipper. Ethyl ether and acetone were mixed at the ratio of 1:1. The mixture was soaked in absorbent cotton and the right nape was rubbed with the absorbent cotton for 1 minute. Then, absorbent cotton soaked with water was used to rub in the same way. This process was performed once in the morning and once in the afternoon for 5 days.
# as §2, with “Next, pruritus evaluation in the dry skin mouse model was performed. In the afternoon on Day 5, the” for “Then,”, “group” for “and animal model”, “intraperitoneally” for “subcutaneously”, “3% DMSO dissolved in physiological saline (0.9% saline) (50” for “500 μg/50”, “/mouse). […] 30 minutes later,” for “of histamine on the dorsal side, and”, “digital” for “digital video”
# [7] = system: mouse motor ability; assay: Rota rod motor condition test; type: in vivo; conditions: 30 mg/kg intraperitoneal, tested after 30 minutes; Rota rod speed 4 to 40
# Procedure: The test mouse was placed on the Rota rod device and then the speed was raised from 4 to 40 until the mouse fell. When the mouse fell, it was moved to a cage. The procedure was repeated three times a day for 3 consecutive days to adapt the mouse to the Rota rod device. After three days of adaptation, the mouse was moved to a cage where it was stabilized.
# As for the control group, 3% DMSO was dissolved in physiological saline (0.9% saline), which was intraperitoneally injected (50 ? /mouse). The animal model mice were intraperitoneally injected with the pharmaceutical composition of Example 1 (30 mg/kg) dissolved in physiological saline (0.9% saline) containing 3% DMSO (50 ? /mouse). The mice were also placed in the same cage above for 30 minutes. The experiment above was repeated three times like the adaptation test above, and the average time of falling was calculated.
# [8] = system: psoriatic mouse model (Aldara cream, 5% imiquimod); assay: Pruritus evaluation in psoriatic mouse model; type: in vivo, C57BL6 mice; conditions: 30 mg/kg intraperitoneal on day 8 after 7 days Aldara cream; counted for 30 minutes; normal group 20.00, control group 71.00
# Procedure: First, a psoriatic mouse model was constructed. A psoriatic mouse model was prepared according to the instruction described Pain. 2016 November; 2536-2543. Zoletil (15 mg/kg) was mixed with saline at the ratio of 1:1 and then mixed with Rompun (5 mg/kg), which was intraperitoneally injected in 7-week-old C57BL6 mice to anesthetize the mice. The mouse back was primarily depilated in the size of 2.5×2 cm using a clipper, and then secondly depilated using a straight blade. Vaseline cream was rubbed on the depilated area of the normal group for 7 days using a cotton swap. Aldara cream (62.5 mg, 5% imiquimod) was rubbed on the depilated area of the control group and the experimental group for 7 days using a cotton swap.
# as §2, with “Next, pruritus evaluation in the psoriatic mouse model was performed. On day 8, the normal group and” for “Then,”, “group” for “and animal model”, “intraperitoneally” for “subcutaneously”, “3% DMSO dissolved in physiological saline (0.9% saline) (50” for “500 μg/50”, “/mouse). […] 30 minutes later,” for “of histamine on the dorsal side, and”, “digital” for “digital video”
# T2 sequence (P35367 whole entry): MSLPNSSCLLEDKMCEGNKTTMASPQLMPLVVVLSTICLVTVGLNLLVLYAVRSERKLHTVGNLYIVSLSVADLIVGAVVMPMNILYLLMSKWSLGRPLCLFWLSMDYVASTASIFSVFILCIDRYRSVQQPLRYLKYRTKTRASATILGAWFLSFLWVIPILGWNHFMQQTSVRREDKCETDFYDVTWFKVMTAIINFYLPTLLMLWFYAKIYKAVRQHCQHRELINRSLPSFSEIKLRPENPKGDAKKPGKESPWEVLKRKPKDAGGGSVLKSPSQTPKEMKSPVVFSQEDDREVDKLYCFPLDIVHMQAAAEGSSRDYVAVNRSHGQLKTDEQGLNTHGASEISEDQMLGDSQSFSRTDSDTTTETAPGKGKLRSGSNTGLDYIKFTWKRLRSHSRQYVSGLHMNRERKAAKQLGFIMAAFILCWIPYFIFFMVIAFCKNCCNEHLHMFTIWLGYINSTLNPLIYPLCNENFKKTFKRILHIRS
# T1 sequence (Q96LB2 whole entry): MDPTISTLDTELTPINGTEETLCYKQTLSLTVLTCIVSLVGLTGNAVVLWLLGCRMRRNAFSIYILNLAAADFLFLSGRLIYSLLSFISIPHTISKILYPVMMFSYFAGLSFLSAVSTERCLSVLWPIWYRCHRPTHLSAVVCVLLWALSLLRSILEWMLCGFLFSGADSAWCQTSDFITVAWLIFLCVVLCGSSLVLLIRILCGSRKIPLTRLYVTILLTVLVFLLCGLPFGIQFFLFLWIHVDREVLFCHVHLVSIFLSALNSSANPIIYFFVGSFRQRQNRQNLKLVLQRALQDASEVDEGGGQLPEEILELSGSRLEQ
smiles,measurement,setting,value
Cc1ccc(-n2nc(C)cc2C(=O)NCCCC(=O)O)cc1 [Example 1],decline of fluorescence analysis result versus chloroquine alone,[1],approximately 54%
same,inhibition at 12 µM,[2],~94%
same,solubility in blood,[3],excellent solubility in blood
same,average number of total scratches accumulated for 30 minutes,[4],39.90 times
same,average number of total scratches accumulated for 30 minutes,[5],150.50 times
same,average number of total scratches accumulated for 30 minutes,[6],14.00 times
same,motor condition ability (average time of falling) versus control group,[7],no significant difference
same,average number of total scratches,[8],1.00
